Measured values from patent publication US10208019B2, “GLP-1 receptor agonists and uses thereof” (Pfizer Inc., priority 2016, dated 2019).

Legend:
[1] = target: human GLP-1R (Homo sapiens (Human), UniProt P43220, L260F); assay: CHO GLP-1R Clone C6—Assay 2: HTRF cAMP cell-based functional agonist assay (low GLP-1R density); conditions: for EC50: CHO GLP-1R Clone C6, cAMP HTRF, geometric mean; for Emax: CHO GLP-1R Clone C6, relative to saturating concentration of full agonist GLP-1 (1 μM), arithmetic mean, read-out: Assay 2 Emax (%)
[2] = target: human GLP-1R (Homo sapiens, UniProt P43220, G168S); assay: CHO GLP-1R Clone H6—Assay 1: HTRF cAMP cell-based functional agonist assay (high GLP-1R density); conditions: for EC50: read-out: Assay 1 EC50, CHO GLP-1R Clone H6, cAMP HTRF, geometric mean; for Emax: read-out: Assay 1 Emax (%), CHO GLP-1R Clone H6, relative to saturating concentration of full agonist GLP-1 (1 μM), arithmetic mean
Sequence of human GLP-1R (Homo sapiens, UniProt P43220, G168S) (P43220 24-463 G168S limits assumed): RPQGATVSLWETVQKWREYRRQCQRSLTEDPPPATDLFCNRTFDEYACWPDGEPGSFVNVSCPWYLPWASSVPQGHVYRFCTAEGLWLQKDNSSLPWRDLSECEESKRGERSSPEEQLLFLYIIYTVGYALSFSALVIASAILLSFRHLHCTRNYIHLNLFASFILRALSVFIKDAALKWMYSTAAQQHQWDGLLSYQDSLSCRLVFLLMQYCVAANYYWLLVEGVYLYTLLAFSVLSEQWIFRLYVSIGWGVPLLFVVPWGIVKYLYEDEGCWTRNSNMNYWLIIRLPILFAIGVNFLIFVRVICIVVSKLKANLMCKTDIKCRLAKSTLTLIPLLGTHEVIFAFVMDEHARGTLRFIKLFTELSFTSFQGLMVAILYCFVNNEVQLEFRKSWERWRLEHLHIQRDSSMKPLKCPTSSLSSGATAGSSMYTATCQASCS

Sequence of human GLP-1R (Homo sapiens (Human), UniProt P43220, L260F) (P43220 24-463 L260F): as the sequence (P43220 24-463 G168S limits assumed) above, with S145G, L237F counted along it

Structure (SMILES)	EC50 [1] [nM]	Emax [1] [%]	EC50 [2] [nM]	Emax [2] [%]
COCCn1c(CN2CCC(c3cccc(OCc4ccccc4)n3)CC2)nc2ccc(C(=O)O)cc21 [Example 1A-10, 2-({4-[6-(benzyloxy)pyridin-2-yl]piperidin-1-yl}methyl)-1-(2-methoxyethyl)-1H-benzimidazole-6-carboxylic acid]	9000	100	930	86
C[C@H]1CN(c2cccc(OCc3ccc(C#N)cc3F)n2)CCN1Cc1nc2ccc(C(=O)O)cc2n1CC1CCCO1 (single isomer, unassigned; diastereomer 2) [Example 14A-12]	20	–	1.4	–
COCCn1c(CN2CCC(c3cccc(OCc4c(F)cc(Cl)cc4F)n3)CC2)nc2ccc(C(=O)O)cc21 [Example 8A-04, 2-((4-(6-((4-chloro-2,6-difluorobenzyl)oxy)pyridin-2-yl)piperidin-1-yl)methyl)-1-(2-methoxyethyl)-1H-benzo[d]imidazole-6-carboxylic acid]	1700	88	120	79
Cn1c(CN2CCC(c3cccc(OCc4ccc(Cl)cc4F)n3)CC2)nc2cnc(C(=O)O)cc21 [Example 2A-03, 2-((4-(6-((4-Chloro-2-fluorobenzyl)oxy)pyridin-2-yl)piperidin-1-yl)methyl)-1-methyl-1H-imidazo[4,5-c]pyridine-6-carboxylic acid]	1200	44	150	74
CO[C@@H]1CCC[C@H]1n1c(CN2CCC(c3cccc(OCc4ccc(Cl)cc4F)n3)CC2)nc2ccc(C(=O)O)cc21 [Example 1A-27, 2-[(4-{6-[(4-chloro-2-fluorobenzyl)oxy]pyridin-2-yl}piperidin-1-yl)methyl]-1-[(1R,2R)-2-methoxycyclopentyl]-1H-benzimidazole-6-carboxylic acid]	1400	47	190	91
CCCn1cnnc1Cn1c(CN2CCC(c3cccc(OCc4ccc(Cl)cc4F)n3)CC2)nc2ccc(C(=O)O)cc21 [Example 1A-18, 2-[(4-{6-[(4-chloro-2-fluorobenzyl)oxy]pyridin-2-yl}piperidin-1-yl)methyl]-1-[(4-propyl-4H-1,2,4-triazol-3-yl)methyl]-1H-benzimidazole-6-carboxylic acid]	110	94	6.4	90
CC(F)(F)Cn1c(CN2CCC(c3cccc(OCc4ccc(Cl)cc4F)n3)CC2)nc2ccc(C(=O)O)cc21 [Example 11A-27, 2-[(4-{6-[(4-chloro-2-fluorobenzyl)oxy]pyridin-2-yl}piperidin-1-yl)methyl]-1-(2,2-difluoropropyl)-1H-benzimidazole-6-carboxylic acid]	490	98	44	72
COCCn1c(CN2CCN(c3cccc(OCc4ccc(Cl)cc4F)n3)[C@H](C)C2)nc2ccc(C(=O)O)cc21 [Example 1A-14, 2-{[(3R)-4-{6-[(4-chloro-2-fluorobenzyl)oxy]pyridin-2-yl}-3-methylpiperazin-1-yl]methyl}-1-(2-methoxyethyl)-1H-benzimidazole-6-carboxylic acid]	1600	81	47	71
O=C(O)c1cc2c(cn1)nc(CN1CCC(c3cccc(OCc4ccc(Cl)cc4F)n3)CC1)n2Cc1ncco1 [Example 2A-06, 2-[(4-{6-[(4-chloro-2-fluorobenzyl)oxy]pyridin-2-yl}piperidin-1-yl)methyl]-1-(1,3-oxazol-2-ylmethyl)-1H-imidazo[4,5-c]pyridine-6-carboxylic acid]	170	85	9	82
COCCn1c(CN2CCC(c3cccc(OCc4ccc(Cl)cc4F)n3)CC2)nc2cnc(C(=O)O)cc21 [Example 2A-07, 2-[(4-{6-[(4-chloro-2-fluorobenzyl)oxy]pyridin-2-yl}piperidin-1-yl)methyl]-1-(2-methoxyethyl)-1H-imidazo[4,5-c]pyridine-6-carboxylic acid]	1600	46	140	72
COCCn1c(CN2CCN(c3nc(OCc4ccc(Cl)cc4F)ccc3F)C[C@@H]2C)nc2ccc(C(=O)O)cc21 [Example 1A-06, 2-{[(2S)-4-{6-[(4-chloro-2-fluorobenzyl)oxy]-3-fluoropyridin-2-yl}-2-methylpiperazin-1-yl]methyl}-1-(2-methoxyethyl)-1H-benzimidazole-6-carboxylic acid]	350	70	29	84

Next, values leading:

EC50 [1] [nM]	Emax [1] [%]	EC50 [2] [nM]	Emax [2] [%]	Structure (SMILES)
19	75	1	76	O=C(O)c1ccc2nc(CN3CCN(c4cccc(OCc5ccc(Cl)cc5F)n4)CC3)n(Cc3cnco3)c2c1 [Example 10A-45, 2-[(4-{6-[(4-chloro-2-fluorobenzyl)oxy]pyridin-2-yl}piperazin-1-yl)methyl]-1-(1,3-oxazol-5-ylmethyl)-1H-benzimidazole-6-carboxylic acid]
99	81	6	73	O=C(O)c1ccc2nc(CN3CCC(c4cccc(OCc5ccc(F)cc5F)n4)CC3)n(Cc3cnco3)c2c1 [Example 10A-44, 2-[(4-{6-[(2,4-difluorobenzyl)oxy]pyridin-2-yl}piperidin-1-yl)methyl]-1-(1,3-oxazol-5-ylmethyl)-1H-benzimidazole-6-carboxylic acid]
4.4	95	0.3	80	C[C@H]1CN(c2cccc(OCc3ccc(C#N)cc3F)n2)CCN1Cc1nc2ccc(C(=O)O)cc2n1C[C@@H]1CCO1 [Example 10A-47, 2-{[(2S)-4-{6-[(4-cyano-2-fluorobenzyl)oxy]pyridin-2-yl}-2-methylpiperazin-1-yl]methyl}-1-[(2S)-oxetan-2-ylmethyl]-1H-benzimidazole-6-carboxylic acid]
14	95	0.96	80	O=C(O)c1ccc2nc(CN3CCC(c4cccc(OCc5ccc(F)cc5F)n4)CC3)n(C[C@@H]3CCO3)c2n1 [Example 2A-20, 2-[(4-{6-[(2,4-difluorobenzyl)oxy]pyridin-2-yl}piperidin-1-yl)methyl]-3-[(2S)-oxetan-2-ylmethyl]-3H-imidazo[4,5-b]pyridine-5-carboxylic acid]
9.7	100	0.9	94	O=C(O)c1ccc2nc(CN3CCN(c4cccc(OCc5ccc(Cl)cc5F)n4)CC3)n(C[C@@H]3CCO3)c2n1 [Example 10A-74, 2-[(4-{6-[(4-chloro-2-fluorobenzyl)oxy]pyridin-2-yl}piperazin-1-yl)methyl]-3-[(2S)-oxetan-2-ylmethyl]-3H-imidazo[4,5-b]pyridine-5-carboxylic acid]
8.5	78	0.52	70	C[C@H]1CN(c2cccc(OCc3ccc(F)cc3F)n2)CCN1Cc1nc2ccc(C(=O)O)cc2n1C[C@@H]1CCO1 [Example 10A-58, 2-{[(2S)-4-{6-[(2,4-difluorobenzyl)oxy]pyridin-2-yl}-2-methylpiperazin-1-yl]methyl}-1-[(2S)-oxetan-2-ylmethyl]-1H-benzimidazole-6-carboxylic acid]
24	98	1.2	84	N#Cc1ccc(COc2nc(C3CCN(Cc4nc5ccc(C(=O)O)cc5n4C[C@@H]4CCO4)CC3)ccc2F)cc1 [Example 10A-55, 2-[(4-{6-[(4-cyanobenzyl)oxy]-5-fluoropyridin-2-yl}piperidin-1-yl)methyl]-1-[(2S)-oxetan-2-ylmethyl]-1H-benzimidazole-6-carboxylic acid]
38	83	2.4	71	O=C(O)c1ccc2nc(CN3CCC(c4cccc(OCc5ccc(F)cc5F)n4)CC3)n(C[C@@H]3CCO3)c2c1 [Example 10A-05, 2-[(4-{6-[(2,4-difluorobenzyl)oxy]pyridin-2-yl}piperidin-1-yl)methyl]-1-[(2S)-oxetan-2-ylmethyl]-1H-benzimidazole-6-carboxylic acid]
41	99	1.7	82	C[C@H]1CN(c2cccc(OCc3ccc(C#N)cc3F)n2)CCN1Cc1nc2ccc(C(=O)O)cc2n1Cc1cncn1C [Example 10A-25]
2.2	97	0.34	89	CCn1cncc1Cn1c(CN2CCC(c3cccc(OCc4ccc(Cl)cc4F)n3)CC2)nc2ccc(C(=O)O)cc21 [Example 10A-02, 2-[(4-{6-[(4-chloro-2-fluorobenzyl)oxy]pyridin-2-yl}piperidin-1-yl)methyl]-1-[(1-ethyl-1H-imidazol-5-yl)methyl]-1H-benzimidazole-6-carboxylic acid]
16	86	0.5	78	C[C@H]1CN(c2ccc(F)c(OCc3ccc(F)cc3F)n2)CCN1Cc1nc2ccc(C(=O)O)cc2n1C[C@@H]1CCO1 [Example 10A-56, 2-{[(2S)-4-{6-[(2,4-difluorobenzyl)oxy]-5-fluoropyridin-2-yl}-2-methylpiperazin-1-yl]methyl}-1-[(2S)-oxetan-2-ylmethyl]-1H-benzimidazole-6-carboxylic acid]
11	110	0.58	86	CCn1cncc1Cn1c(CN2CCN(c3cccc(OCc4ccc(C#N)cc4F)n3)C[C@@H]2C)nc2ccc(C(=O)O)cc21 [Example 10A-63]
